Tests used:
PLA2G16 = biological target: T1, PLA2G16 (Homo sapiens, UniProt P53816); test: Enzyme activity assay for PLA2G16 (Red/Green BODIPY PC-A2 fluorescence); assay type: biochemical; conditions: His-tagged PLA2G16, 4 min pre-incubation, 2 nM to 50 μM; read-out: IC50 values of the compounds determined in the enzyme activity assay for PLA2G16
T1 construct: Hexa-His (N); made in house; host or cells: E. coli BL21(DE3)
T1 sequence (P53816 1-162): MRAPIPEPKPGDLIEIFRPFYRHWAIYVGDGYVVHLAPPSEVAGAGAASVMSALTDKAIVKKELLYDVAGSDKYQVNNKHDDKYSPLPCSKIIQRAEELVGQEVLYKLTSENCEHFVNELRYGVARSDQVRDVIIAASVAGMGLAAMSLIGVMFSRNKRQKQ
In short: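 IC50 from non-linear fits of fluorescence rise (480/530 nm, 10 min) after adding Red/Green BODIPY PC-A2 mixed with DOPC/DOPG/cholesterol liposomes. Recombinant His-tagged human enzyme, bacterially expressed, was first exposed to inhibitor (2 nM–50 μM final) for 4 min in 50 mM Tris pH 8.5, 100 mM NaCl, 5 mM glutathione.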

[1] = tested on: picornaviruses (CVB1, HRV-A2, HRV-A23, EV-68); test: Anti-picornavirus cytopathic effect (CPE) reduction assay on HeLa H1 cells; assay type: cell-based; conditions: Enterovirus B, HeLa H1, 48 h, HeLa H1 cells, 48 h, category from averaging the EC50 values from four picornaviruses (CVB1, HRV-A2, HRV-A23, EV68); read-out: EC50 values of the compounds determined in the anti-picornavirus assay
In short: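 Cytopathic-effect protection: EC50 from non-linear regression of cell viability (CellTiterBlue, 560/590 nm) 48 h post-infection, scaled between infected and mock-infected vehicle wells. Compound dilutions added to HeLa H1 cells 2 h before virus (MOI causing complete CPE within 2 days), in DMEM + 2% FBS; categories average the four viruses.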

| Structure (SMILES) | IC50 (PLA2G16) | EC50 [1] |
| --- | --- | --- |
| CC(NC(=O)c1ccccc1)C(=O)C(=O)NCC1CCCC1 (stereo not shown) [FP 180, N-(Cyclopentylmethyl)-2-oxo-3-(phenylformamido)butanamide] | < 1000 nM | 1000 to 10000 nM |
| C[C@@H]1CC(=O)N(Cc2ccccc2)[C@H]1C(=O)C(=O)NCC1CC1 (single isomer, unassigned) [FP 336] | < 1000 nM | < 1000 nM |
| CC(C)CNC(=O)C(=O)C(C)N(C=O)C1CCCCC1 (stereo not shown) [FP 15, 3-(N-Cyclohexylformamido)-N-(2-methylpropyl)-2-oxobutanamide] | < 1000 nM | < 1000 nM |
| CC(=O)NCCNC(=O)C(=O)C1CCC(=O)N1Cc1ccc(Cl)cc1 (stereo not shown) [FP 243, 2-{1-[(4-Chlorophenyl)methyl]-5-oxopyrrolidin-2-yl}-N-(2-acetamidoethyl)-2-oxoacetamide] | 1000 to 10000 nM | > 10000 nM |
| O=C(NCC1CC1)C(=O)C1CCC(=O)N1CC1CCCC1 (stereo not shown) [FP 280, 2-[1-(Cyclopentylmethyl)-5-oxopyrrolidin-2-yl]-N-(cyclopropylmethyl)-2-oxoacetamide] | < 1000 nM | < 1000 nM |
| Cc1ccccc1S(=O)(=O)NC(C)C(=O)C(=O)NCC1CC1 (stereo not shown) [FP 190, N-(Cyclopropylmethyl)-3-(2-methylbenzenesulfonamido)-2-oxobutanamide] | < 1000 nM | 1000 to 10000 nM |
| O=C(NC1CC1)C(=O)C1N(Cc2ccccc2)C(=O)CC12CC2 (stereo not shown) [FP 345, 2-{5-Benzyl-6-oxo-5-azaspiro[2.4]heptan-4-yl}-N-cyclopropyl-2-oxoacetamide] | < 1000 nM | < 1000 nM |
| Cc1ccncc1C(=O)NC(C)C(=O)C(=O)NCC1CCCCC1 (stereo not shown) [FP 209, N-(Cyclohexylmethyl)-3-[(4-methylpyridin-3-yl)formamido]-2-oxobutanamide] | < 1000 nM | 1000 to 10000 nM |
| COc1ccccc1N(C=O)C(C)C(=O)C(=O)NCc1ccccn1 (stereo not shown) [FP 96, 3-[N-(2-Methoxyphenyl)formamido]-2-oxo-N-[(pyridin-2-yl)methyl]butanamide] | < 1000 nM | > 10000 nM |
| CC(NC(=O)C1CCCCC1)C(=O)C(=O)NCC1CC1 (stereo not shown) [FP 161, 3-(Cyclohexylformamido)-N-(cyclopropylmethyl)-2-oxobutanamide] | < 1000 nM | > 10000 nM |
| CC(C(=O)C(=O)NCc1cccc(Cl)c1)N(C)C=O (stereo not shown) [FP 69, N-[(3-Chlorophenyl)methyl]-3-(N-methylformamido)-2-oxobutanamide] | 1000 to 10000 nM | > 10000 nM |
| Cc1ccc(S(=O)(=O)NC(C)C(=O)C(=O)NCC2CC2)cc1 (stereo not shown) [FP 189, N-(Cyclopropylmethyl)-3-(4-methylbenzenesulfonamido)-2-oxobutanamide] | < 1000 nM | 1000 to 10000 nM |
| CC(C(=O)C(=O)NCc1cccc(Cl)c1)N(C=O)CC1CCOCC1 (stereo not shown) [FP 24, N-[(3-Chlorophenyl)methyl]-3-{N[(oxan-4-yl)methyl]formamido}-2-oxobutanamide] | < 1000 nM | 1000 to 10000 nM |
| O=C(NC1CN(C(=O)C2CCCC2)C1)C(=O)[C@H]1CCC(=O)N1Cc1ccccc1 [FP 319, 2-[(2R)-1-Benzyl-5-oxopyrrolidin-2-yl]-N-(1-cyclopentanecarbonylazetidin-3-yl)-2-oxoacetamide] | < 1000 nM | 1000 to 10000 nM |
| CCOCCOCCNC(=O)C(=O)[C@H]1CCC(=O)N1Cc1ccccc1 [FP 302, 2-[(2R)-1-Benzyl-5-oxopyrrolidin-2-yl]-N-[2-(2-ethoxyethoxy)ethyl]-2-oxoacetamide] | < 1000 nM | 1000 to 10000 nM |
| CCNC(=O)C(=O)C1CCC(=O)N1Cc1ccc(C)s1 (stereo not shown) [FP 278, N-Ethyl-2-{1-[(5-methylthiophen-2-yl)methyl]-5-oxopyrrolidin-2-yl}-2-oxoacetamide] | < 1000 nM | 1000 to 10000 nM |
| CC(C)[C@H]1CC(=O)N(Cc2ccccc2)[C@@H]1C(=O)C(=O)NC1CC1 (racemic) [FP 342, 2-[(2S,3R)-1-Benzyl-5-oxo-3-(propan-2-yl)pyrrolidin-2-yl]-N-cyclopropyl-2-oxoacetamide and 2-[(2R,3S)-1-benzyl-5-oxo-3-(propan-2-yl)pyrrolidin-2-yl]-N-cyclopropyl-2-oxoacetamide] | < 1000 nM | < 1000 nM |
| O=C(N[C@@H]1C[C@@H]1F)C(=O)[C@H]1CCC(=O)N1Cc1ccccc1 [FP 267, 2-[(2R)-1-Benzyl-5-oxopyrrolidin-2-yl]-N-[(1R,2S)-2-fluorocyclopropyl]-2-oxoacetamide] | < 1000 nM | < 1000 nM |
| COc1cccc(Cl)c1C(=O)NC(C)C(=O)C(=O)NCC1CC1 (stereo not shown) [FP 212, 3-[(2-Chloro-6-methoxyphenyl)formamido]-N-(cyclopropylmethyl)-2-oxobutanamide] | < 1000 nM | 1000 to 10000 nM |
| COc1ccccc1N(C=O)C(C)C(=O)C(=O)NCC1CCCCC1 (stereo not shown) [FP 25, N-(Cyclohexylmethyl)-3-[N-(2-methoxyphenyl)formamido]-2-oxobutanamide] | < 1000 nM | < 1000 nM |

Reference: patent publication US11091428B2 (HAPLOGEN GMBH, priority 2016, dated 2021)
